Measured values as given in PubChem BioAssay (NCI).
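Compound exposure: 48 hours, 5 concentrations, 96-well plates. Abbreviation: GI50, concentration required for 50% inhibition of growth. TGI is the concentration that stops growth completely.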

Experiments:
Assay in all cases: NCI anticancer screen, dose series, 48 h
786-0 renal = system: 786-0 renal
COLO 205 colon = system: COLO 205 colon
DU-145 prostate = system: DU-145 prostate
MALME-3M melanoma = system: MALME-3M melanoma
MDA-MB-231 breast = system: MDA-MB-231 breast
OVCAR-8 ovarian = system: OVCAR-8 ovarian
RXF 393 renal = system: RXF 393 renal
SR leukemia = system: SR leukemia

Row | SMILES | TGI (786-0 renal) [µM] | TGI (COLO 205 colon) [µM] | TGI (DU-145 prostate) [µM] | TGI (MALME-3M melanoma) [µM] | TGI (MDA-MB-231 breast) [µM] | TGI (OVCAR-8 ovarian) [µM] | TGI (RXF 393 renal) [µM] | TGI (SR leukemia) [µM] | GI50 (DU-145 prostate) [µM] | GI50 (MALME-3M melanoma) [µM] | GI50 (MDA-MB-231 breast) [µM] | GI50 (OVCAR-8 ovarian) [µM] | GI50 (SR leukemia) [µM] | GI50 (COLO 205 colon) [µM] | GI50 (RXF 393 renal) [µM]
1 | N=C(N)n1[nH]c2c(c1=O)CCC2 | > 100 | > 100 | > 100 | > 100 | > 100 | > 100 | > 100 | > 100 | – | – | – | – | – | – | –
2 | NCCCn1c2c(c3ccc([N+](=O)[O-])cc3c1=O)C(=O)c1cc3c(cc1-2)OCO3 | – | – | 1.48 | 2.82 | 0.935 | 0.402 | – | > 100 | < 0.01 | 0.488 | 0.44 | 0.106 | 0.0225 | – | –
3 | c1ccc(C(CCN2CCCC2)c2ccccn2)cc1 (centres undefined) | > 100 | > 100 | > 100 | > 100 | > 100 | > 100 | > 100 | > 100 | – | – | – | – | – | – | –
4 | COc1ccc(N2CCN(c3ccc4c(c3)NCC(=O)N4)CC2)cc1 | > 100 | > 100 | > 100 | > 100 | > 100 | > 100 | – | 44.4 | – | – | – | – | – | – | –
5 | COC(=O)C1(NC(=O)C(N)CC(=O)O)C(C)C1C (centres undefined) | > 100 | > 100 | > 100 | > 100 | > 100 | > 100 | > 100 | > 100 | – | – | – | – | – | – | –
6 | O=c1c2c([nH]c3cc4c(cc13)OCO4)-c1ccccc1CCC2 | > 50 | > 50 | > 50 | > 50 | > 50 | > 50 | > 50 | 38.4 | – | – | – | – | – | – | –
7 | C=C(C)CC1=C(C(=S)NCCO[Si](C)(C)C(C)(C)C)C(OCC)(OCC)C1=O | 33.1 | 75 | 76.3 | 27.1 | 67.5 | > 100 | 31.5 | – | – | – | – | – | – | – | –
8 | Cc1ccccc1NC(=S)N/N=C(/c1ccccc1)c1ccccn1 | 10.8 | 19.1 | 18.3 | 11.8 | 12.7 | 11.8 | 12.3 | > 21.2 | – | – | – | – | – | – | –
9 | C=C1c2nc3ccccc3n2C=C(c2ccc(Cl)cc2)N1c1ccccc1 | 26 | > 100 | > 100 | 27 | > 100 | 23.7 | 49.5 | > 100 | – | – | – | – | – | – | –
10 | Cc1ccc(S(=O)(=Nc2ccccc2)C(C(C)C)C(C)(C)Cl)cc1 (centres undefined) | > 50 | 7.56 | > 50 | > 50 | > 50 | > 50 | > 50 | 49.7 | – | – | – | – | – | – | –
11 | NCCCCNCCCN | > 100 | > 100 | > 100 | > 100 | > 100 | > 100 | > 100 | > 100 | – | – | – | – | – | – | –
12 | CCOC(=O)/C=C(/C(=O)OCC)n1c(=O)c(C)cn(C2CC(N=[N+]=[N-])C(CO)O2)c1=O (centres undefined) | 72 | 30.1 | > 100 | > 100 | 46 | > 100 | 57.2 | – | – | – | – | – | – | – | –
13 | O=C(/C=C/c1cccs1)c1ccsc1 | > 100 | 38 | > 100 | 59 | > 10 | 96.5 | – | 38.5 | – | – | – | – | – | – | –
14 | CCC(=N\NC(N)=S)/C(C)=N/O | > 100 | > 100 | > 100 | > 100 | > 100 | > 100 | > 100 | – | – | – | – | – | – | – | –
15 | COC(=O)C[C@H](COCc1ccccc1)NC(=O)C[C@H](COCc1ccccc1)NC(=O)C[C@H](COCc1ccccc1)NC(=O)OC(C)(C)C | 72.9 | > 100 | > 100 | > 100 | > 100 | > 100 | 72 | > 100 | – | – | – | – | – | – | –
16 | CCCCCCC(CCl)c1sc(-c2csc(CCNC(=O)OC(C)(C)C)n2)nc1C(=O)OC (centres undefined) | 75.9 | > 100 | > 100 | – | > 100 | > 100 | – | > 100 | – | – | – | – | – | – | –
17 | Sc1nnc(-c2ccccc2Nc2ccccc2-c2nnc(S)n2-c2ccccc2)n1-c1ccccc1 | > 100 | > 100 | > 100 | – | 89.6 | > 100 | > 100 | > 100 | – | – | – | – | – | – | –
18 | CN(C)CCCNC(=O)c1cc(NC(=O)c2cc(NC(=O)c3cc(NC(=O)CCCn4ccc(CO)c4CO)cn3C)cn2C)cn1C | > 100 | 53.1 | > 100 | 37.4 | > 100 | – | 6.24 | > 100 | – | – | – | – | – | – | –
19 | Oc1[nH]c2ccccc2c1N=NC(=S)N1CCCCCC1 | 2.63 | 6.2 | 10.5 | 3.02 | 3.35 | 2.67 | 2.43 | 3.44 | – | – | – | – | – | – | –
20 | CCN(CC)C(=S)SNCCc1ccc(S(N)(=O)=O)cc1 | 27.8 | > 100 | 33.8 | 24.3 | 30.4 | 25.2 | 22.1 | > 49.4 | – | – | – | – | – | – | –
21 | C1OCN2c3nonc3N3COCN4c5nonc5N1C2C43 (centres undefined) | > 100 | > 100 | > 100 | > 100 | > 100 | > 100 | > 100 | > 100 | – | – | – | – | – | – | –
22 | Oc1c(I)cc(I)cc1CNCCCN(Cc1ccccn1)Cc1ccccn1 | – | 5.99 | 4.63 | 1.73 | 2.12 | 3.27 | 1.66 | – | 1.51 | 0.873 | 1.01 | 1.25 | – | 1.65 | 0.866
23 | O=C(NCCO)c1c(O)c2ccccc2[nH]c1=O | > 100 | > 100 | > 100 | > 100 | > 100 | > 100 | > 100 | > 100 | – | – | – | – | – | – | –
24 | COC(=O)C1=C(OC(=O)/C(=C/c2ccc(Cl)cc2)c2ccccc2)C(C(=O)OC)[C@@]2(O)[C@@H](C(=O)OC)[C@H](C)C[C@@H]1[C@@H]2C(=O)OC (some centres undefined) | > 100 | > 100 | > 100 | > 100 | > 100 | > 100 | > 100 | > 100 | – | – | – | – | – | – | –
